Assays:
[1] = target: T1, Bone morphogenetic protein receptor type-2 (Homo sapiens) (UniProt Q13873); assay: Inhibition of BMPR2 at 1 uM
T1 sequence (whole entry): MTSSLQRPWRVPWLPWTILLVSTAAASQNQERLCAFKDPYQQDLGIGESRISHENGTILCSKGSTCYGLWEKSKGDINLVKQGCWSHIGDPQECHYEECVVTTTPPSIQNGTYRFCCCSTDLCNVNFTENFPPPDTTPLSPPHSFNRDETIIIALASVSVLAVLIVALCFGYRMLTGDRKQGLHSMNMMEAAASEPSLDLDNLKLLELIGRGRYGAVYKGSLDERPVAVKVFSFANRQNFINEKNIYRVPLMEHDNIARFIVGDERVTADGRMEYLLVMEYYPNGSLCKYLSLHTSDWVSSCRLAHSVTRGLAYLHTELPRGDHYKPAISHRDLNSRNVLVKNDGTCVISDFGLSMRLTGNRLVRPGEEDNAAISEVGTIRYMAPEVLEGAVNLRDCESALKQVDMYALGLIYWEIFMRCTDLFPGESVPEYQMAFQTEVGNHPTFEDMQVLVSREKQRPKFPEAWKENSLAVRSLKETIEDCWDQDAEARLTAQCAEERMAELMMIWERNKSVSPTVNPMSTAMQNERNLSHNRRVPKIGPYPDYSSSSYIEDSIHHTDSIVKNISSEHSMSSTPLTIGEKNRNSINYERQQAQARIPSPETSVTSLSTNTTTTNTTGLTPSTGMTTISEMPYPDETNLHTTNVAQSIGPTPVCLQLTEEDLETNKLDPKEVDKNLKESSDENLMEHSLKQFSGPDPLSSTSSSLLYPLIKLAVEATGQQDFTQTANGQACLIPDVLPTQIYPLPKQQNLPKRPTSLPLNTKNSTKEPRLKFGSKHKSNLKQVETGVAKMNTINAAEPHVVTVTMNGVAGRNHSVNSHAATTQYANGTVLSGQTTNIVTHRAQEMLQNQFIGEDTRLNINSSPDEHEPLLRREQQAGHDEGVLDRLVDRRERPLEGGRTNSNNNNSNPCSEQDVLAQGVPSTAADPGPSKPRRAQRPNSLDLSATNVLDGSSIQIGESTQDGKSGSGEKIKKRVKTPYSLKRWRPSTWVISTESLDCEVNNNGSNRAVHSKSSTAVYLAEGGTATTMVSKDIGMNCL

[2] = target: Serine/threonine-protein kinase N1 (Homo sapiens) (UniProt Q16512); assay: Inhibition of PKN1 at 1 uM
[3] = target: T2, Phosphatidylinositol 5-phosphate 4-kinase type-2 beta (Homo sapiens) (UniProt P78356); assay: Inhibition of PIP5K2B at 1 uM
T2 sequence (whole entry): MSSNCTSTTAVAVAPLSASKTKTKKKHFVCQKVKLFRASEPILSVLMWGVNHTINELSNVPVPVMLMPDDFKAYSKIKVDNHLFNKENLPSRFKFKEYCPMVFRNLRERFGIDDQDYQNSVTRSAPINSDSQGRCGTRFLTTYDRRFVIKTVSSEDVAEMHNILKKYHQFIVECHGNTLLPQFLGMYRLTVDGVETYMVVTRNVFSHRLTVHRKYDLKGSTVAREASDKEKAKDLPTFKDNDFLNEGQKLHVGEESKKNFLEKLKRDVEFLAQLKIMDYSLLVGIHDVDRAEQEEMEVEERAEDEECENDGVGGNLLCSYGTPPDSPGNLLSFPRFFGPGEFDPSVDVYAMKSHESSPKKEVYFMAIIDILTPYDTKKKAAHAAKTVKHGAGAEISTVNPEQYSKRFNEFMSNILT

[4] = target: T3, Mitogen-activated protein kinase 15 (Homo sapiens) (UniProt Q8TD08); assay: Inhibition of ERK8 at 1 uM
T3 sequence (whole entry): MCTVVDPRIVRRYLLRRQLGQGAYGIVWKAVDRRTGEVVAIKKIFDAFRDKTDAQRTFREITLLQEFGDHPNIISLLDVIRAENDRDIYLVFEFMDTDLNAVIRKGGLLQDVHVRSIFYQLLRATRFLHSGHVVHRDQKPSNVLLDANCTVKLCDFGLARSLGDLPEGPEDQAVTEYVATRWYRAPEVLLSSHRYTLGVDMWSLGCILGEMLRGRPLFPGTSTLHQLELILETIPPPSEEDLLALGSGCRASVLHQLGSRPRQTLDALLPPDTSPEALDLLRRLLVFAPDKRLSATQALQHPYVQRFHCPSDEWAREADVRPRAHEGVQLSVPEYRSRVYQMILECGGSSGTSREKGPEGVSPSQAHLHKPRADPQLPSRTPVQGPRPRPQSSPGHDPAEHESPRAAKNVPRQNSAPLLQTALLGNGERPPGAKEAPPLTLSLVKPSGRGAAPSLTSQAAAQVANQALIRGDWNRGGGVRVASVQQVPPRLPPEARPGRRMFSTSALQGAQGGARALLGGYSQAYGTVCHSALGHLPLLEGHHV

[5] = target: T4, Serine/threonine-protein kinase tousled-like 1 (Homo sapiens) (UniProt Q9UKI8); assay: Inhibition of TLK1 at 1 uM
T4 sequence (whole entry): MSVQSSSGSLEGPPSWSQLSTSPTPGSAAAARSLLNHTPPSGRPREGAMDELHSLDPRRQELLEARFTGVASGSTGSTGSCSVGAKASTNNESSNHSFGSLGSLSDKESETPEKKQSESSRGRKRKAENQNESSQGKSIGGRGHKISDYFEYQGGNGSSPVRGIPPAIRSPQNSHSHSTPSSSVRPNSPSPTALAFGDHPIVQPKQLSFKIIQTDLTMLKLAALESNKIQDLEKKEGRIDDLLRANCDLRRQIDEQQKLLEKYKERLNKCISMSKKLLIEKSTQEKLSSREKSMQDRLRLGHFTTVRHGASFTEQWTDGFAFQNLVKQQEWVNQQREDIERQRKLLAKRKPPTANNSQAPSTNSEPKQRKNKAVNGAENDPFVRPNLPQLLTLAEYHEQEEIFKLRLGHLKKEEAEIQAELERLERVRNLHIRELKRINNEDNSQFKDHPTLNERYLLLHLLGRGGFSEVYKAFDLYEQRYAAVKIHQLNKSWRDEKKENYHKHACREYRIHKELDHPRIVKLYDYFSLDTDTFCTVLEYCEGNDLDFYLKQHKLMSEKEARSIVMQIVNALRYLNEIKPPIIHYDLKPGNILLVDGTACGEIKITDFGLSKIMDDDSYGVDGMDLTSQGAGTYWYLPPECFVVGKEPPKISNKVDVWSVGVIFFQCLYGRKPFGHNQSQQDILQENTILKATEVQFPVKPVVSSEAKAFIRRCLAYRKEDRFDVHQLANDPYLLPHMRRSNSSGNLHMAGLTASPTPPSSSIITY

Chain of Serine/threonine-protein kinase N1 (Homo sapiens) (Q16512 2-942 limits assumed): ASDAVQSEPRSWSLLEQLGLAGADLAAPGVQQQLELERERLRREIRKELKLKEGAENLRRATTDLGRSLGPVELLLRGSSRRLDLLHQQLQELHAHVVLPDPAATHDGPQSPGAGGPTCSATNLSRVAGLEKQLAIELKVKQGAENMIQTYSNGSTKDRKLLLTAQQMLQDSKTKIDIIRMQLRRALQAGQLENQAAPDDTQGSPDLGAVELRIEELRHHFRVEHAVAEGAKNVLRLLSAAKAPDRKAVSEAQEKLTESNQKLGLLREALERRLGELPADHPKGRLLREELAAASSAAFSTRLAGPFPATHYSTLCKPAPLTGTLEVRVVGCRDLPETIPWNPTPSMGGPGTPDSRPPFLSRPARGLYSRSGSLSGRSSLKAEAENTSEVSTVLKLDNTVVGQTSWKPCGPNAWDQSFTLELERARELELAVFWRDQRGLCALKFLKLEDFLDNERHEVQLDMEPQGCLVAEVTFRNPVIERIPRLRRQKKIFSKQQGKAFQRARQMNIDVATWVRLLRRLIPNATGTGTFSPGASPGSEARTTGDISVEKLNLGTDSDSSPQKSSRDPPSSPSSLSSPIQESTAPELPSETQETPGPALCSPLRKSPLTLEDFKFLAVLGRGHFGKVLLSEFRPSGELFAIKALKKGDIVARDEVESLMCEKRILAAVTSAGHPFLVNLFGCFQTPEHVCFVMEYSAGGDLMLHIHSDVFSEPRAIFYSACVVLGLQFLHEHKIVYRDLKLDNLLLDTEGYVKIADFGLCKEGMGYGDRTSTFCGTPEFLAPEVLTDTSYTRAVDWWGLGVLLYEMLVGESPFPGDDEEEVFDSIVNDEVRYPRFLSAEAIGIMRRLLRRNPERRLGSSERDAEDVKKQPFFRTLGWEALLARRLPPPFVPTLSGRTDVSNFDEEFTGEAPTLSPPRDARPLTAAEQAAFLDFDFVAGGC

Row | inhibition [1] [%] | inhibition [2] [%] | inhibition [3] [%] | inhibition [5] [%] | Compound | inhibition [4] [%]
1 | < 50 | < 50 | < 50 | < 50 | CN1CCN(c2ccc(-c3cnc4c(c3)N(Cc3cc(Cl)ccc3Cl)CCN4)cn2)CC1 | < 50
2 | < 50 | < 50 | < 50 | < 50 | CN1CCN(c2ccc(-c3cnc4c(c3)N(Cc3cc(Cl)ccc3C(F)(F)F)CCN4)cn2)CC1 | < 50
3 |  |  | < 50 | < 50 | COC1CCN(C(=O)c2ccc(-c3cnc4c(c3)N(Cc3cc(Cl)ccc3C(F)(F)F)CCN4)cc2)CC1 | 
4 |  |  | < 50 | < 50 | O=C(c1ccc(-c2cnc3c(c2)N(Cc2cc(Cl)ccc2C(F)(F)F)CCN3)cc1)N1CCCCC1 | 
5 | < 50 | 82 | < 50 | < 50 | FC(F)(F)c1ccc(Cl)cc1CN1CCNc2ncc(-c3ccnc(N4CCNCC4)c3)cc21 | < 50
6 | < 50 | < 50 | < 50 | < 50 | CC(=O)N1CCN(c2cc(-c3cnc4c(c3)N(Cc3cc(Cl)ccc3C(F)(F)F)CCN4)ccn2)CC1 | < 50
7 |  |  | < 50 | < 50 | O=C(O)c1ccc(-c2cnc3c(c2)N(Cc2cc(Cl)ccc2C(F)(F)F)CCN3)cc1 | 
8 |  |  | < 50 | < 50 | O=C(c1ccc(-c2cnc3c(c2)N(Cc2cc(Cl)ccc2C(F)(F)F)CCN3)cc1)N1CCC(N2CCCC2)CC1 | 
9 | < 50 | < 50 | < 50 | < 50 | CN1CCN(c2ccc(-c3cnc4c(c3)N(Cc3c(F)ccc(F)c3Cl)CCN4)cn2)CC1 | < 50
10 | < 50 | < 50 | < 50 | < 50 | CN1CCN(c2ccc(-c3cnc4c(c3)N(Cc3cc(F)ccc3F)CCN4)cn2)CC1 | < 50
